{"source": "patent US20110065672A1", "about": "“BISPHOSPHONATE-PROSTATIC ACID PHOSPHATASE INHIBITOR CONJUGATES TO TREAT PROSTATE CANCER BONE METASTASIS” (MOUNT SINAI SCHOOL OF MEDICINE OF NEW YORK UNIVERSITY, priority 2009, published 2011)", "key": {"[1]": {"target": "T1, prostatic acid phosphatase (PAP) (Homo sapiens, UniProt P15309)", "T1 construct": "endogenous in cells; host or cells: VCaP (human prostate cancer cell line); in A3 also MC3T3 pre-osteoblasts, alone or in co-culture", "T1 sequence (P15309 33-386)": "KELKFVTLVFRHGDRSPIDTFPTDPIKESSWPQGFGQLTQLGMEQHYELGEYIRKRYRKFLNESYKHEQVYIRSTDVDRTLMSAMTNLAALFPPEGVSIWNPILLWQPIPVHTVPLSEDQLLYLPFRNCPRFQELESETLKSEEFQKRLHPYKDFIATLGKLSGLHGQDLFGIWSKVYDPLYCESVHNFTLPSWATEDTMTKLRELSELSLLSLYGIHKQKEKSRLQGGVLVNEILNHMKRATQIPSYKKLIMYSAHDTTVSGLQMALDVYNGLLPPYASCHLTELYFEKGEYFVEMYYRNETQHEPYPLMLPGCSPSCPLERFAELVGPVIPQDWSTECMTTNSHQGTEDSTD", "test": "PAP secretion in VCaP cell culture with conjugates, ELISA", "format": "cell-based", "conditions": "overnight; for inhibition of PAP secretion: 0.1 mM or 1.0 mM in VCaP cell culture medium", "procedure": "Either the glyceric acid conjugate (i.e., N-Alendronyl-D-Glyceramide) (example 1, 0.1 mM or 1.0 mM) or the tartaric acid conjugate (i.e., N-Alendronyl-L-Tartaric Acid Monamide) (example 2, 0.1 mM or 1.0 mM) was added to VCaP cell culture medium, and incubated overnight. PAP secretion was measured using an ELISA assay."}, "MC3T3 cells": {"tested_on": "MC3T3 cells", "test": "Growth of MC3T3 pre-osteoblast cells, single line or co-culture, counted by hemacytometer", "format": "cell-based", "conditions": "tartrate 20 μM, 7 days, serum free medium", "procedure": "(§1) The human prostate cancer cell line VCaP (originally derived from a vertebral metastases) and the pre-osteoblast cell line MC3T3, were used to for in vitro studies with tartrate. Each cell culture was grown in serum free medium either in single line or co-culture, and treated with or without tartrate (20 μM) for 7 days. Cell numbers were counted by a hemacytometer and the secretion of PAP and bone alkaline phosphatase (ALP) was measured using ELISA."}, "VCaP cells": {"tested_on": "VCaP cells", "test": "Growth of VCaP prostate cancer cells, single line or co-culture, counted by hemacytometer", "format": "cell-based, human", "conditions": "tartrate 20 μM, 7 days, serum free medium", "procedure": "as §1"}, "[2]": {"target": "T1, prostatic acid phosphatase (PAP)", "test": "Secretion of PAP from MC3T3 and VCaP single line and co-cultures, ELISA", "format": "cell-based", "conditions": "tartrate 20 μM, 7 days", "procedure": "as §1"}, "[3]": {"tested_on": "prostatic acid phosphatase (PAP)", "test": "Secretion of PAP from MC3T3 and VCaP single line and co-cultures, ELISA", "format": "cell-based, human", "conditions": "tartrate 20 μM, 7 days, MC3T3 cells (very low PAP levels)", "procedure": "as §1"}, "[4]": {"tested_on": "bone alkaline phosphatase (ALP)", "test": "Secretion of bone alkaline phosphatase (ALP), ELISA", "format": "cell-based", "conditions": "tartrate 20 μM, 7 days", "procedure": "as §1\nSecretion of bone alkaline phosphatase (ALP) by pre-osteoblast cells is correlated with pre-osteoblast differentiation into mature osteoblasts cells. Accordingly, ALP secretion was measured to indirectly determine whether the inhibition of PAP secretion by tartrate also served to attenuate differentiation events. […] This effect was not seen in the single line MC3T3 and VCaP cell cultures."}, "RAW cells [5]": {"tested_on": "RAW cells", "test": "RAW pre-osteoclast cell growth in co-culture experiments, hemacytometer", "format": "cell-based", "conditions": "tartrate (2004) for 2 days", "procedure": "(§2) In order to determine the effects of prostatic acid phosphatase (PAP) on osteoclast differentiation and activity, a series of co-culture experiments were performed in which pre-osteoclast cells (RAW cells) were co-cultured with either PAP-positive (PAP^+), VCaP cells or PAP-negative (PAP^−) (PC3) human prostate cancer (PCa) cells. RAW cells were counted in a hemacytometer on day 5.\n(§3) VCaP (PAP^+) and PC3 (PAP^−) cells (5×10^4 each) were seeded on inserts in RPMI or DMEM medium with 10% FBS. Pre-osteoclast, PRAW cells (5×10^4) were plated on the bottom in 12 well plates. After 2 days, medium was changed to serum-free DMEM with 0.1% BSA+/− tartrate (2004) for 2 days. Mean number of multinucleated cells (hallmark of osteoclast differentiation) was determined on day 5 by multiple field counts in 200× objective view."}, "RAW cells [6]": {"tested_on": "RAW cells", "test": "RAW cell differentiation, mean number of multinucleated cells", "format": "cell-based", "conditions": "tartrate (2004) for 2 days", "procedure": "as §2, §3"}, "RAW (osteoclast) cells": {"tested_on": "RAW (osteoclast) cells", "test": "Osteoclast bone-resorbing activity, pit formation on osteologic discs", "format": "cell-based", "conditions": "tartrate 20 μM, 7 days, RANKL and MCSF", "procedure": "The effect of PAP on osteoclast bone-resorbing activity was measured by assaying pit formation when osteoclasts were cultured on bone matrix (osteologic discs). RAW (osteoclast) cells (2×10^4 cells), PC3 (PAP^−) cells (2×10^4 cells), and VCaP (PAP^+) cells (3×10^4 cells) were plated, alone or in combination, on calcium hydroxyapatite-coated osteologic discs in DMEM medium with 10% FBS for 7 days+/−tartrate (20 μM). All cultures were treated with RANKL ([…]) and MCSF ([…]). On day 7, cells were washed and discs stained with von Kossa to visualize the calcium matrix and pits (which indicate bone resorption by the RAW osteoclast cells)."}, "PAP": {"target": "T2, PAP (Homo sapiens, UniProt P15309)", "T2 sequence (P15309 33-386)": "T1 sequence (P15309 33-386)", "conditions": "see U.S. Pat. No. 5,763,490; cited from earlier work"}, "bone acid phosphatase": {"target": "T3, bone acid phosphatase (Homo sapiens, UniProt P13686)", "T3 sequence (P13686 22-325)": "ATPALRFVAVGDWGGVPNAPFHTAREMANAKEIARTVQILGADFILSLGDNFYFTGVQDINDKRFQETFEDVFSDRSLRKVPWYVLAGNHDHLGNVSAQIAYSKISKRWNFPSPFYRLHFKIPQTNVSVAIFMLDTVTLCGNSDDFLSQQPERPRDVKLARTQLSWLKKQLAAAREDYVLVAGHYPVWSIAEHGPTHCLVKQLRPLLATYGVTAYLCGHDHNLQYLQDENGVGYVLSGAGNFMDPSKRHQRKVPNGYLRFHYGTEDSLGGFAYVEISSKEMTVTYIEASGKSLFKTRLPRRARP", "conditions": "cited from earlier work"}}}
{"smiles": "O=C(NCCCC(O)(P(=O)(O)O)P(=O)(O)O)[C@H](O)CO", "note": "[example 1, N-Alendronyl-D-Glyceramide]", "values": [{"measurement": "inhibition of PAP secretion", "setting": "[1]", "value": "significantly inhibited"}, {"measurement": "effectiveness as a PAP inhibitor compared with tartrate alone", "setting": "[1]; VCaP cell culture medium", "value": "as effective as tartrate alone"}]}
{"smiles": "O=C(O)C(O)[C@H](O)C(=O)NCCCC(O)(P(=O)(O)O)P(=O)(O)O", "note": "(stereo partly drawn) [example 2, N-Alendronyl-L-Tartaric Acid Monamide]", "values": [{"measurement": "inhibition of PAP secretion", "setting": "[1]", "value": "inhibit PAP secretion"}]}
{"smiles": "O=C(O)[C@H](O)[C@@H](O)C(=O)O", "note": "[tartrate, L-tartrate]", "values": [{"measurement": "effect on growth of MC3T3 cells co-cultured with VCaP cells", "setting": "MC3T3 cells; co-culture with VCaP, p<0.01", "value": "significantly inhibited"}, {"measurement": "effect on growth of MC3T3 single line cell culture", "setting": "MC3T3 cells; single line", "value": "did not have a significant effect"}, {"measurement": "effect on VCaP cell growth when co-cultured with MC3T3 cells", "setting": "VCaP cells; co-culture with MC3T3", "value": "did not have a significant effect"}, {"measurement": "effect on growth of VCaP single line cell culture", "setting": "VCaP cells; single line", "value": "did not have a significant effect"}, {"measurement": "prostatic acid phosphatase secretion by VCaP cells grown alone", "setting": "[2]; VCaP alone", "value": "significantly inhibited"}, {"measurement": "prostatic acid phosphatase secretion by VCaP cells in co-culture with MC3T3 cells", "setting": "[2]; co-culture with MC3T3", "value": "significantly inhibited"}, {"measurement": "PAP secretion by MC3T3 cells", "setting": "[3]", "value": "did not inhibit"}, {"measurement": "bone alkaline phosphatase secretion by MC3T3 cells in co-culture with VCaP cells", "setting": "[4]; co-culture with VCaP", "value": "significantly inhibited"}, {"measurement": "bone alkaline phosphatase secretion, single line MC3T3 cell culture", "setting": "[4]; single line MC3T3", "value": "not seen"}, {"measurement": "bone alkaline phosphatase secretion, single line VCaP cell culture", "setting": "[4]; single line VCaP", "value": "not seen"}, {"measurement": "effect on growth of RAW cells co-cultured with PC3 cells", "setting": "RAW cells [5]; counted day 5, co-culture with PC3 (PAP-)", "value": "did not have a significant effect"}, {"measurement": "effect on growth of RAW cells co-cultured with VCaP cells", "setting": "RAW cells [5]; counted day 5, co-culture with VCaP (PAP+), p<0.01", "value": "significantly inhibited"}, {"measurement": "effect on growth of RAW cells alone", "setting": "RAW cells [5]; serum-free DMEM with 0.1% BSA, counted day 5, RAW alone", "value": "did not have a significant effect"}, {"measurement": "effect on differentiation of RAW cells alone", "setting": "RAW cells [6]; multinucleated cells on day 5, RAW alone", "value": "did not have a significant effect"}, {"measurement": "effect on differentiation of RAW cells co-cultured with PC3 cells", "setting": "RAW cells [6]; multinucleated cells on day 5, co-culture with PC3", "value": "did not have a significant effect"}, {"measurement": "effect on RAW cell differentiation when co-cultured with VCaP", "setting": "RAW cells [6]; multinucleated cells on day 5, co-culture with VCaP, p<0.01", "value": "significantly inhibited"}, {"measurement": "decrease of pit formation, RAW cells co-cultured with VCaP", "setting": "RAW (osteoclast) cells", "value": 50, "unit": "%"}, {"measurement": "effect on number of pits, RAW cells co-cultured with PC3 cells", "setting": "RAW (osteoclast) cells", "value": "no significant effect"}, {"measurement": "inhibition of PAP", "setting": "PAP", "value": "inhibited"}, {"measurement": "inhibition of bone acid phosphatase", "setting": "bone acid phosphatase", "value": "is not"}]}
